Data as given in BindingDB's records for doi:10.1021/acs.jmedchem.0c00807 (University of Oxford, 2020).

Test: Modulation of human utrophinA expressed in mouse H2K cells assessed as upregulation of utrophin production after 24 hrs by luciferase reporter gene assay

SMILES	EC50 [nM]
CC(=O)Nc1ccc2oc(-c3ccc4ccccc4c3)nc2c1	10
CC(C)C(=O)Nc1ccc2oc(-c3ccc4ccccc4c3)nc2c1	38
O=S1(=O)CCCN1c1ccc2oc(-c3ccc4ccccc4c3)nc2c1	110
CNS(=O)(=O)c1ccc2oc(-c3ccc4ccccc4c3)nc2c1	146
CCP(=O)(OC)c1ccc2oc(-c3ccc4ccccc4c3)nc2c1 (stereo not given)	4
CCP(=O)(OC)c1ccc2nc(-c3ccc4ccccc4c3)oc2c1 (stereo not given)	71
CCOP(=O)(CC)c1ccc2oc(-c3ccc4ccccc4c3)nc2c1 (stereo not given)	26
CCOP(=O)(CC)c1ccc2nc(-c3ccc4ccccc4c3)oc2c1 (stereo not given)	108
COP(=O)(c1ccc2oc(-c3ccc4ccccc4c3)nc2c1)C(C)C (stereo not given)	34
COP(=O)(c1ccc2nc(-c3ccc4ccccc4c3)oc2c1)C(C)C (stereo not given)	234
COP(=O)(c1ccc2oc(-c3ccc4ccccc4c3)nc2c1)C(C)(C)C (stereo not given)	148
CCP(=O)(OC)c1ccc2oc(-c3cnc4ccccc4c3)nc2c1 (stereo not given)	62
CCP(=O)(OC)c1ccc2oc(-c3ccc4ncccc4c3)nc2c1 (stereo not given)	164
CCP(=O)(OC)c1ccc2oc(-c3ccc4cccnc4c3)nc2c1 (stereo not given)	157
CCP(=O)(OC)c1ccc2oc(-c3ccc4ccncc4c3)nc2c1 (stereo not given)	332
CCP(=O)(OC)c1ccc2oc(-c3ccc4cnccc4c3)nc2c1 (stereo not given)	1140
CCP(=O)(OC)c1ccc2nc(-c3cnc4ccccc4c3)oc2c1 (stereo not given)	71
CCP(=O)(OC)c1ccc2nc(-c3ccc4ncccc4c3)oc2c1 (stereo not given)	85
CCP(=O)(OC)c1ccc2nc(-c3ccc4cccnc4c3)oc2c1 (stereo not given)	928
CCP(=O)(OC)c1ccc2nc(-c3ccc4ccncc4c3)oc2c1 (stereo not given)	1140
CCP(=O)(OC)c1ccc2nc(-c3ccc4cnccc4c3)oc2c1 (stereo not given)	1760
CCP(=O)(OC)c1ccc2oc(/C=C/c3ccccc3)nc2c1 (stereo not given)	163
CCP(=O)(OC)c1ccc2oc(-c3ccc(Cl)cc3)nc2c1 (stereo not given)	112

SMILES	EC50 [nM]
CCP(=O)(OC)c1ccc2oc(-c3cccc(F)c3)nc2c1 (stereo not given)	823
CCP(=O)(OC)c1ccc2oc(-c3ccc(C(F)(F)F)cc3)nc2c1 (stereo not given)	548
CCP(=O)(OC)c1ccc2oc(-c3ccccc3C(F)(F)F)nc2c1 (stereo not given)	861
CCP(=O)(OC)c1ccc2oc(-c3ccc(F)cc3F)nc2c1 (stereo not given)	777
CCP(=O)(OC)c1ccc2oc(-c3cccc(Cl)c3F)nc2c1 (stereo not given)	198
CCP(=O)(OC)c1ccc2oc(-c3ccc(Cl)c(Cl)c3)nc2c1 (stereo not given)	118
CCP(=O)(OC)c1ccc2oc(-c3cccc(Cl)c3Cl)nc2c1 (stereo not given)	244
CCP(=O)(OC)c1ccc2oc(-c3c(F)ccc(Cl)c3F)nc2c1 (stereo not given)	1770
CCP(=O)(OC)c1ccc2oc(-c3ccc(Cl)s3)nc2c1 (stereo not given)	168
CCP(=O)(OC)c1ccc2oc(-c3sccc3Cl)nc2c1 (stereo not given)	1510
CCP(=O)(OC)c1ccc2oc(-c3ccc(C(F)(F)F)o3)nc2c1 (stereo not given)	1770
CCP(=O)(OC)c1ccc2nc(/C=C/c3ccccc3)oc2c1 (stereo not given)	766
CCP(=O)(OC)c1ccc2nc(-c3ccc(F)cc3)oc2c1 (stereo not given)	1230
CCP(=O)(OC)c1ccc2nc(-c3cccc(F)c3)oc2c1 (stereo not given)	2250
CCP(=O)(OC)c1ccc2nc(-c3ccc(F)cc3F)oc2c1 (stereo not given)	1760
CCP(=O)(OC)c1ccc2nc(-c3cccc(Cl)c3Cl)oc2c1 (stereo not given)	1950
COP(=O)(c1ccc2oc(-c3ccc(F)cc3)nc2c1)C(C)C (stereo not given)	303
COP(=O)(c1ccccc1)c1ccc2oc(-c3ccc(F)cc3)nc2c1 (stereo not given)	826
CCOP(=O)(CC)c1ccc2oc(-c3ccc(F)cc3)nc2c1 (stereo not given)	1250
COP(=O)(c1ccc2nc(-c3ccc(F)cc3)oc2c1)C(C)C (stereo not given)	1510
CCP(=O)(OC)c1cccc2oc(-c3ccc(F)cc3)nc12 (stereo not given)	1190
CCS(=O)(=O)c1ccc2oc(-c3ccc4ccccc4c3)nc2c1 [BMN 195]	187
